Molecular target: T1, FGFR1 active kinase (Homo sapiens, UniProt P11362)
Assay: FGFR Kinase assay - Caliper Echo Dosing
Type: biochemical
Settings: FGFR1 7.2 nM, 408 uM ATP, acoustic dosing; geometric mean of n
Experimental: FGFR Kinase Assay—Caliper Echo Dosing
(§1) To determine inhibition of FGFR activity, kinase assays were conducted using Caliper technology.
(§2) Kinase activity assays were performed in Greiner 384-well low volume plates, with a total reaction volume of 12 ul per well. Final concentration of FGFR1 active kinase in each reaction well was 7.2 nM. The substrate for each assay was a custom peptide with fluorescent tag (13 amino acids in length, […] with the fluorescene tag on the first K).
Compounds were dispensed directly in to assay plates using a Labcyte Echo 550 acoustic droplet ejection unit. Each well received 120 nl of DMSO containing compound such that the final concentration of compound in the assay prior to the addition of the stop solution ranged between 30 uM and 30 pM. In addition to compounds each plate carried maximum and minimum control wells, the max wells contained 120 nl of DMSO and the min wells contained 120 nl of 10 mM staurosporine (LC Laboratories, MA 01801, USA Catalogue No. S-9300). The Enzyme (at 7.2 nM [final]) and Substrate (at 3.6 uM [final]) were added separately to the compound plates, in reaction buffer [comprising: 50 mM MOPS (Sigma, Catalogue No. M1254)—pH 6.5, 0.004% Triton (Sigma, Catalogue No. X-100), 2.4 mM DTT, 12 mM MgCl2, 408 uM ATP] resulting in a final DMSO concentration in the reaction mix of 1%.
(§3) Assay plates were incubated at room temperature for 1.5 h, before the reaction was stopped with the addition of buffer [comprising: 100 mM HEPES—pH7.5, 0.033% Brij-35 (Sigma Catalogue No. B4184), 0.22% Caliper Coating Reagent #3 (Caliper Life Sciences Catalogue No. 760050), 88 mM EDTA, 5% DMSO]. Stopped assay plates were then read using the Caliper LabChip® LC3000 (which uses microfludics to measure a shift in mobility between fluorescent labelled peptide and the FGFR1 kinase—phosphorylated form of this peptide).
In the assay, compounds were tested at a range of concentrations. […] Percentage inhibition at 1 uM, as expressed herein, is a calculated value based on the curve fit that was generated experimentally. From the fitted curve plot, the effect of compound at a concentration of 1 uM was calculated as a percentage inhibition. The IC50 is the concentration of compound, which inhibits FGFR1 kinase activity by 50% in the context of this assay. This value is calculated using a standard curve fitting software package Origin™.

T1 sequence (P11362 22-822): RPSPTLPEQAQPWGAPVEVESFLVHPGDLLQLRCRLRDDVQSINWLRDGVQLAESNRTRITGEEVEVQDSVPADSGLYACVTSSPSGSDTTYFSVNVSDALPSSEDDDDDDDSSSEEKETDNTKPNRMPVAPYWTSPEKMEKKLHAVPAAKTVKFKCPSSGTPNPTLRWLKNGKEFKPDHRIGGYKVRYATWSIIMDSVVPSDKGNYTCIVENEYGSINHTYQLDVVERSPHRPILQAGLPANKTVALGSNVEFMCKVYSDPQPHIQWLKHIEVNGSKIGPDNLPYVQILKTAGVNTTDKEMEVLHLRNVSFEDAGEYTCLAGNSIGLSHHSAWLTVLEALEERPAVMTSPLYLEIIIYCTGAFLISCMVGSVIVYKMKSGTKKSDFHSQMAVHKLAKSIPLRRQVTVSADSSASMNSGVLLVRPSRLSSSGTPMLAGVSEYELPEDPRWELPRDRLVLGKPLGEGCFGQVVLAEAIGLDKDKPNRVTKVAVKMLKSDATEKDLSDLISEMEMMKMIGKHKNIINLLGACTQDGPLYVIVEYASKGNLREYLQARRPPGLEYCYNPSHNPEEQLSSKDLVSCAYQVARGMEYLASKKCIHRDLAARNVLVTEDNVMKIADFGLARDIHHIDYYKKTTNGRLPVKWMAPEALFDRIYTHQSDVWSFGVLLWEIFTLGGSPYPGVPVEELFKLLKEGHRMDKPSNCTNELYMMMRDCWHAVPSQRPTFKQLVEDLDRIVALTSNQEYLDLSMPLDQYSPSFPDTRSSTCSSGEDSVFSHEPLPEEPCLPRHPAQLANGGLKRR

SMILES	IC50 [nM]
COc1cc(CCc2cc(NC(=O)c3ccc(N4CC[N+](C)([O-])CC4)cc3)[nH]n2)cc(OC)c1 [Example 117, N-[5-[2-(3,5-Dimethoxyphenyl)ethyl]-2H-pyrazol-3-yl]-4-(4-methyl-4-oxidopiperazin-4-ium-1-yl)benzamide]	1.3
COc1cc(CCc2cc(NC(=O)c3cnc(C4CCN(C)CC4)nc3)[nH]n2)cc(OC)c1 [Example 162, N-[5-[2-(3,5-dimethoxyphenyl)ethyl]-2H-pyrazol-3-yl]-2-(1-methylpiperidin-4-yl)pyrimidine-5-carboxamide]	36
CCN1CCN(c2ccc(C(=O)Nc3cc(OCc4cc(OC)cc(OC)c4)n[nH]3)s2)CC1 [Example 141, N-[5-[(3,5-dimethoxyphenyl)methoxy]-2H-pyrazol-3-yl]-5-(4-ethylpiperazin-1-yl)thiophene-2-carboxamide]	0.86
CCN(CC)C1CCN(c2cnc(C(=O)Nc3cc(CCc4cc(OC)cc(OC)c4)n[nH]3)cn2)C1 (centres unmarked) [Example 158, 5-(3-diethylaminopyrrolidin-1-yl)-N-[5-[2-(3,5-dimethoxyphenyl)ethyl]-2H-pyrazol-3-yl]pyrazine-2-carboxamide]	2.9
COc1cc(COc2cc(NC(=O)c3ccc(N4CCN5CCCCC5C4)cc3)[nH]n2)cc(OC)c1 (centres unmarked) [Example 98, 4-(1,3,4,6,7,8,9,9a-octahydropyrido[2,1-c]pyrazin-2-yl)-N-[5-[(3,5-dimethoxyphenyl)methoxy]-2H-pyrazol-3-yl]benzamide]	3
COc1cc(CCc2cc(NC(=O)c3cnc(N4CCN(C)C(=O)C4)nc3)[nH]n2)cc(OC)c1 [Example 150, N-[5-[2-(3,5-dimethoxyphenyl)ethyl]-2H-pyrazol-3-yl]-2-(4-methyl-3-oxopiperazin-1-yl)pyrimidine-5-carboxamide]	12
COc1cc(COc2cc(NC(=O)c3ccc(N4CC5CCCNC5C4)cc3)[nH]n2)cc(OC)c1 (centres unmarked) [Example 151, 4-(1,2,3,4,4a,5,7,7a-octahydropyrrolo[3,4-b]pyridin-6-yl)-N-[5-[(3,5-dimethoxyphenyl)methoxy]-2H-pyrazol-3-yl]benzamide]	1.3
CCN1CCCN(c2ccc(C(=O)Nc3cc(CCc4cc(OC)cc(OC)c4)n[nH]3)cc2)CC1 [Example 170, N-[5-[2-(3,5-dimethoxyphenyl)ethyl]-2H-pyrazol-3-yl]-4-(4-ethyl-1,4-diazepan-1-yl)benzamide]	0.71
COc1cc(CCc2cc(NC(=O)c3ccc(N4CCN5CCCC5C4)s3)[nH]n2)cc(OC)c1 (centres unmarked) [Example 120, 5-(3,4,6,7,8,8a-hexahydro-1H-pyrrolo[2,1-c]pyrazin-2-yl)-N-[5-[2-(3,5-dimethoxyphenyl)ethyl]-2H-pyrazol-3-yl]thiophene-2-carboxamide]	0.98
COc1cc(COc2cc(NC(=O)c3ccc(N4CCN(C)CC4)s3)[nH]n2)cc(OC)c1 [Example 107, N-[5-[(3,5-dimethoxyphenyl)methoxy]-2H-pyrazol-3-yl]-5-(4-methylpiperazin-1-yl)thiophene-2-carboxamide]	1.1
COc1cc(COc2cc(NC(=O)c3cnc(Cl)cn3)[nH]n2)cc(OC)c1 [5-Chloro-N-[5-[(3,5-dimethoxyphenyl)methoxy]-2H-pyrazol-3-yl]pyrazine-2-carboxamide]	60
COCC1CN(c2ncc(C(=O)Nc3cc(CCc4cc(OC)cc(OC)c4)n[nH]3)cn2)CCN1 (centres unmarked) [Example 160, N-[5-[2-(3,5-dimethoxyphenyl)ethyl]-2H-pyrazol-3-yl]-2-[3-(methoxymethyl)piperazin-1-yl]pyrimidine-5-carboxamide]	4.3
C=CCN1CCCN(c2ccc(C(=O)Nc3cc(CCc4cc(OC)cc(OC)c4)n[nH]3)cc2)CC1 [Example 164, N-[5-[2-(3,5-dimethoxyphenyl)ethyl]-2H-pyrazol-3-yl]-4-(4-prop-2-enyl-1,4-diazepan-1-yl)benzamide]	0.78
COc1cc(CCc2cc(NC(=O)c3cnc(N4CCCN(C(C)C)CC4)nc3)[nH]n2)cc(OC)c1 [Example 173, N-[5-[2-(3,5-dimethoxyphenyl)ethyl]-2H-pyrazol-3-yl]-2-(4-propan-2-yl-1,4-diazepan-1-yl)pyrimidine-5-carboxamide]	18
C=CCN1CCCN(c2cnc(C(=O)Nc3cc(CCc4cc(OC)cc(OC)c4)n[nH]3)cn2)CC1 [Example 172, N-[5-[2-(3,5-dimethoxyphenyl)ethyl]-2H-pyrazol-3-yl]-5-(4-prop-2-enyl-1,4-diazepan-1-yl)pyrazine-2-carboxamide]	3.4
COc1cc(COc2cc(NC(=O)c3cnc(N4CCN(C5CC5)CC4)nc3)[nH]n2)cc(OC)c1 [Example 133, 2-(4-cyclopropylpiperazin-1-yl)-N-[5-[(3,5-dimethoxyphenyl)methoxy]-2H-pyrazol-3-yl]pyrimidine-5-carboxamide]	3.9
COc1cc(COc2cc(NC(=O)c3ccc(N4CCN5CCCC5C4)s3)[nH]n2)cc(OC)c1 (centres unmarked) [Example 121, 5-(3,4,6,7,8,8a-hexahydro-1H-pyrrolo[2,1-c]pyrazin-2-yl)-N-[5-[(3,5-dimethoxyphenyl)methoxy]-2H-pyrazol-3-yl]thiophene-2-carboxamide]	0.79
COc1cc(CCc2cc(NC(=O)c3ccc(N4CCCN(C(C)C)CC4)s3)[nH]n2)cc(OC)c1 [Example 168, N-[5-[2-(3,5-dimethoxyphenyl)ethyl]-2H-pyrazol-3-yl]-5-(4-propan-2-yl-1,4-diazepan-1-yl)thiophene-2-carboxamide]	1.5
COc1cc(CCc2cc(NC(=O)c3cnc(N4C[C@@H](C)N(C)[C@@H](C)C4)cn3)[nH]n2)cc(OC)c1 [Example 125, N-[5-[2-(3,5-dimethoxyphenyl)ethyl]-2H-pyrazol-3-yl]-5-[(3R,5S)-3,4,5-trimethylpiperazin-1-yl]pyrazine-2-carboxamide]	1.7
COc1cc(CCc2cc(NC(=O)c3cnc(N4CCCN(C)CC4)nc3)[nH]n2)cc(OC)c1 [Example 176, N-[5-[2-(3,5-dimethoxyphenyl)ethyl]-2H-pyrazol-3-yl]-2-(4-methyl-1,4-diazepan-1-yl)pyrimidine-5-carboxamide]	5.8
COc1cc(CCc2cc(NC(=O)c3cnc(N4C[C@@H](C)N(CC#N)[C@@H](C)C4)cn3)[nH]n2)cc(OC)c1 [Example 129, 5-[(3R,5S)-4-(cyanomethyl)-3,5-dimethylpiperazin-1-yl]-N-[5-[2-(3,5-dimethoxyphenyl)ethyl]-2H-pyrazol-3-yl]pyrazine-2-carboxamide]	3.5
COc1cc(CCc2cc(NC(=O)c3ccc(N4CCCNCC4)cc3)[nH]n2)cc(OC)c1 [Example 145, 4-(1,4-diazepan-1-yl)-N-[5-[2-(3,5-dimethoxyphenyl)ethyl]-2H-pyrazol-3-yl]benzamide]	0.7
COc1cc(COc2cc(NC(=O)c3cnc(N4C[C@@H](C)N(C)[C@@H](C)C4)cn3)[nH]n2)cc(OC)c1 [Example 130, N-[5-[(3,5-dimethoxyphenyl)methoxy]-2H-pyrazol-3-yl]-5-[(3R,5S)-3,4,5-trimethylpiperazin-1-yl]pyrazine-2-carboxamide]	0.59

Molecular target: T1, FGFR1 active kinase
Assay: FGFR Kinase assay - Caliper; further: 408 µM ATP
Type: biochemical
Settings: FGFR1 […], 408 uM ATP; mean of n as printed; read-out: FGFR Kinase assay - Caliper, IC50
Experimental: FGFR Kinase Assay—Caliper
as §1, §2
Compounds were serially diluted in 5% (v/v) DMSO, before being added to assay plates. The Enzyme (at 7.2 nM [final]) and Substrate (at 3.6 uM [final]) were added separately to the compound plates, in reaction buffer [comprising: 50 mM MOPS (Sigma, Catalogue No. M1254)—pH 6.5, 0.004% Triton (Sigma, Catalogue No. X-100), 2.4 mM DTT, 12 mM MgCl2, 408 uM ATP] resulting in a final DMSO concentration in the reaction mix of 0.8%.
as §3
In the assay, compounds were tested at a range of concentrations.
Percentage inhibition at 1 uM, as expressed herein, is a calculated value based on the curve fit that was generated experimentally. From the fitted curve plot, the effect of compound at a concentration of 1 uM was calculated as a percentage inhibition. The IC50 is the concentration of compound, which inhibits FGFR1 kinase activity by 50% in the context of this assay.

SMILES	IC50 [nM]
COc1cc(CCc2cc(NC(=O)c3ccc(OCCN4CCOCC4)cc3)n[nH]2)cc(OC)c1 [Example 54, N-[5-[2-(3,5-Dimethoxyphenyl)ethyl]-1H-pyrazol-3-yl]-4-(2-morpholin-4-ylethoxy)benzamide]	96
COc1cccc(CCc2cc(NC(=O)c3ccc(Nc4ccccc4)nc3)[nH]n2)c1 [Example 26, 6-Anilino-N-[5-[2-(3-methoxyphenyl)ethyl]-2H-pyrazol-3-yl]pyridine-3-carboxamide]	64000
COc1cccc(CCc2cc(NC(=O)c3ccc(C(=O)O)nc3)[nH]n2)c1 [Example 66, 5-[[5-[2-(3-Methoxyphenyl)ethyl]-2H-pyrazol-3-yl]carbamoyl]pyridine-2-carboxylic Acid]	1020

Reference: patent US10301267B2, “Compounds” (AstraZeneca AB, priority 2006, dated 2019)
